Reference: ChEMBL document CHEMBL3864167, “Structure-Activity Relationship, Drug Metabolism and Pharmacokinetics Properties Optimization, and in Vivo Studies of New Brain Penetrant Triple T-Type Calcium Channel Blockers” (J Med Chem, 2016)
In brackets after ≈: the same amount, converted by molar mass.

Columns and labels:
[1] = biological target: Voltage-dependent T-type calcium channel subunit alpha-1G (Homo sapiens, UniProt O43497); assay: Channel blocking activity at recombinant human CaV 3.1 channel expressed in HEK293 cells assessed as inhibition of Ca2+ flux preincubated for 3 mins followed by CaCl2 addition by fluo-4 dye-based FLIPR assay; format: cell-based
[2] = Intrinsic clearance in human liver microsomes at 1 uM up to 15 mins in presence of NADPH by LC-MS-MS analysis; format: ADME; conditions: read-out: CLH
[3] = biological target: Voltage-dependent T-type calcium channel subunit alpha-1I (Homo sapiens, UniProt Q9P0X4); assay: Channel blocking activity at recombinant human CaV 3.3 channel expressed in HEK293 cells assessed as inhibition of Ca2+ flux preincubated for 3 mins followed by CaCl2 addition by fluo-4 dye-based FLIPR assay; format: cell-based
[4] = Solubility of the compound at pH 7; format: physicochemical; conditions: buffer
[5] = biological target: Voltage-dependent T-type calcium channel subunit alpha-1H (Homo sapiens, UniProt O95180); assay: Channel blocking activity at recombinant human CaV 3.2 channel expressed in HEK293 cells assessed as inhibition of Ca2+ flux preincubated for 3 mins followed by CaCl2 addition by fluo-4 dye-based FLIPR assay; format: cell-based
[6] = Intrinsic clearance in Wistar rat liver microsomes at 1 uM up to 15 mins in presence of NADPH by LC-MS-MS analysis; format: ADME; conditions: read-out: CLH
MDR1 [7] = assay: Apparent permeability from apical side to basolateral side in MDCK1 cells expressing MDR1; format: ADME, cell-based, Canis lupus familiaris; conditions: dog, MDCK-MDR1
MDR1 [8] = assay: Apparent permeability from basolateral side to apical side in MDCK1 cells expressing MDR1; format: ADME, cell-based, Canis lupus familiaris; conditions: dog, MDCK-MDR1
MDR1 [9] = assay: Efflux ratio for apparent permeability in MDCK1 cells expressing MDR1; format: ADME, cell-based, Canis lupus familiaris; conditions: dog, MDCK-MDR1
[10] = Dissociation constant, pKa of compound; format: physicochemical

Voltage-dependent T-type calcium channel subunit alpha-1G, sequence (O43497 whole entry): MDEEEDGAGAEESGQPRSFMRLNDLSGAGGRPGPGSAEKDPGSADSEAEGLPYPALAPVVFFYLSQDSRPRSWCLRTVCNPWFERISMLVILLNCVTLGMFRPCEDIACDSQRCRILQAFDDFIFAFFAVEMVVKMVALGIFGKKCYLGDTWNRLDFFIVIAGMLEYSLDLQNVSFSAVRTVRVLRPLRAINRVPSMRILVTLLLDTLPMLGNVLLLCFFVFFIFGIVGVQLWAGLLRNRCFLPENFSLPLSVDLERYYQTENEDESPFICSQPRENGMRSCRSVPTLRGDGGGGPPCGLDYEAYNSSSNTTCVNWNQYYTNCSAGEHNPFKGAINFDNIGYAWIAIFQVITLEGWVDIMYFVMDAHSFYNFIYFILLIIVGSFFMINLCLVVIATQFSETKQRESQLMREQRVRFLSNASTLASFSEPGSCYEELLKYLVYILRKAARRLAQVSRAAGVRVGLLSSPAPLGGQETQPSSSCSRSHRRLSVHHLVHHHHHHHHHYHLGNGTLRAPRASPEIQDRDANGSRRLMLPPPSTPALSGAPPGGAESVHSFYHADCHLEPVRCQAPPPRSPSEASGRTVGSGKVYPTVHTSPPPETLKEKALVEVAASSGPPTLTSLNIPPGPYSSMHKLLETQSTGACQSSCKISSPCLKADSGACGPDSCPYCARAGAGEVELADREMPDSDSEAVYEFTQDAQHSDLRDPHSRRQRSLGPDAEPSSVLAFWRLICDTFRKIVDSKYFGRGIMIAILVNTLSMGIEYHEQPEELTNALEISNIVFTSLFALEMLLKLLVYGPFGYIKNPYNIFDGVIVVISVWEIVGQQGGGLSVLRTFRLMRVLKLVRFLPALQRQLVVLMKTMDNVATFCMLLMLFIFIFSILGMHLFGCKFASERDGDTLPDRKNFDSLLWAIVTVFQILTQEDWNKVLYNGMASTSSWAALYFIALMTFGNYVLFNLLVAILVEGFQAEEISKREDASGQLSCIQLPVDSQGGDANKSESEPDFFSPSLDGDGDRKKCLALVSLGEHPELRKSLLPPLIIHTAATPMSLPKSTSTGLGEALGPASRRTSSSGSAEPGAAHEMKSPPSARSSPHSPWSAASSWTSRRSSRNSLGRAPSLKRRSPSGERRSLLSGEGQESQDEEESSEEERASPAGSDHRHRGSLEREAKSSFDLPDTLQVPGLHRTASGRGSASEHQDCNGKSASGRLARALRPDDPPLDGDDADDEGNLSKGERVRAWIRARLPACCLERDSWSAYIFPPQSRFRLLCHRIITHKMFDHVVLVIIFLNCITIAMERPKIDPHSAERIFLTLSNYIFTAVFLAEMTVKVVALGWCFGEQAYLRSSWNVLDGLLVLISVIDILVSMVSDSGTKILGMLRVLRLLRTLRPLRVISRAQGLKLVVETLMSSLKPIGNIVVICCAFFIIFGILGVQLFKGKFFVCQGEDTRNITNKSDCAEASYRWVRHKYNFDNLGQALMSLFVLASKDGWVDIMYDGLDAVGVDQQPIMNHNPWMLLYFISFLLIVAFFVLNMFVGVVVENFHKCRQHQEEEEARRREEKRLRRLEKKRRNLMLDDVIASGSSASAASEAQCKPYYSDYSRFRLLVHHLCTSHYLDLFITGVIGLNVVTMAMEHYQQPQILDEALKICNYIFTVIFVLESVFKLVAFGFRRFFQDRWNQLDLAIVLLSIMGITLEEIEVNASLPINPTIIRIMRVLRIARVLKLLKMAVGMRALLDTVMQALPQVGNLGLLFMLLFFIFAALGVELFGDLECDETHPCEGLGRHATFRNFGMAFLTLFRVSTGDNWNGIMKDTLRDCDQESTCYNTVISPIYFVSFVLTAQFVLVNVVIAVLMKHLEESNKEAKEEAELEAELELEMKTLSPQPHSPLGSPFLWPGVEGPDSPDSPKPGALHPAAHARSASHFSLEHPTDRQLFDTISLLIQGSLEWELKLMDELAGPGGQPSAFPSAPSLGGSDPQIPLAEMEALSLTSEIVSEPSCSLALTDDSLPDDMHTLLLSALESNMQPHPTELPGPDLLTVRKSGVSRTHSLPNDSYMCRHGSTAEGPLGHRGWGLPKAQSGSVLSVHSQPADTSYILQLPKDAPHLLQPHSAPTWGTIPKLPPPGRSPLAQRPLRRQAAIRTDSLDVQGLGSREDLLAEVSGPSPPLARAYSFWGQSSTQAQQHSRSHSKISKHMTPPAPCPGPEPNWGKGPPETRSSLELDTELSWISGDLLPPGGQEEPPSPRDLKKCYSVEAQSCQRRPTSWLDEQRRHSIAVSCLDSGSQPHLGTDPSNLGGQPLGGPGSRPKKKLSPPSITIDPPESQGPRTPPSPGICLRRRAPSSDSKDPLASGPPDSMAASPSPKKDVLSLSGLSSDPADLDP
Voltage-dependent T-type calcium channel subunit alpha-1H, sequence (O95180 whole entry): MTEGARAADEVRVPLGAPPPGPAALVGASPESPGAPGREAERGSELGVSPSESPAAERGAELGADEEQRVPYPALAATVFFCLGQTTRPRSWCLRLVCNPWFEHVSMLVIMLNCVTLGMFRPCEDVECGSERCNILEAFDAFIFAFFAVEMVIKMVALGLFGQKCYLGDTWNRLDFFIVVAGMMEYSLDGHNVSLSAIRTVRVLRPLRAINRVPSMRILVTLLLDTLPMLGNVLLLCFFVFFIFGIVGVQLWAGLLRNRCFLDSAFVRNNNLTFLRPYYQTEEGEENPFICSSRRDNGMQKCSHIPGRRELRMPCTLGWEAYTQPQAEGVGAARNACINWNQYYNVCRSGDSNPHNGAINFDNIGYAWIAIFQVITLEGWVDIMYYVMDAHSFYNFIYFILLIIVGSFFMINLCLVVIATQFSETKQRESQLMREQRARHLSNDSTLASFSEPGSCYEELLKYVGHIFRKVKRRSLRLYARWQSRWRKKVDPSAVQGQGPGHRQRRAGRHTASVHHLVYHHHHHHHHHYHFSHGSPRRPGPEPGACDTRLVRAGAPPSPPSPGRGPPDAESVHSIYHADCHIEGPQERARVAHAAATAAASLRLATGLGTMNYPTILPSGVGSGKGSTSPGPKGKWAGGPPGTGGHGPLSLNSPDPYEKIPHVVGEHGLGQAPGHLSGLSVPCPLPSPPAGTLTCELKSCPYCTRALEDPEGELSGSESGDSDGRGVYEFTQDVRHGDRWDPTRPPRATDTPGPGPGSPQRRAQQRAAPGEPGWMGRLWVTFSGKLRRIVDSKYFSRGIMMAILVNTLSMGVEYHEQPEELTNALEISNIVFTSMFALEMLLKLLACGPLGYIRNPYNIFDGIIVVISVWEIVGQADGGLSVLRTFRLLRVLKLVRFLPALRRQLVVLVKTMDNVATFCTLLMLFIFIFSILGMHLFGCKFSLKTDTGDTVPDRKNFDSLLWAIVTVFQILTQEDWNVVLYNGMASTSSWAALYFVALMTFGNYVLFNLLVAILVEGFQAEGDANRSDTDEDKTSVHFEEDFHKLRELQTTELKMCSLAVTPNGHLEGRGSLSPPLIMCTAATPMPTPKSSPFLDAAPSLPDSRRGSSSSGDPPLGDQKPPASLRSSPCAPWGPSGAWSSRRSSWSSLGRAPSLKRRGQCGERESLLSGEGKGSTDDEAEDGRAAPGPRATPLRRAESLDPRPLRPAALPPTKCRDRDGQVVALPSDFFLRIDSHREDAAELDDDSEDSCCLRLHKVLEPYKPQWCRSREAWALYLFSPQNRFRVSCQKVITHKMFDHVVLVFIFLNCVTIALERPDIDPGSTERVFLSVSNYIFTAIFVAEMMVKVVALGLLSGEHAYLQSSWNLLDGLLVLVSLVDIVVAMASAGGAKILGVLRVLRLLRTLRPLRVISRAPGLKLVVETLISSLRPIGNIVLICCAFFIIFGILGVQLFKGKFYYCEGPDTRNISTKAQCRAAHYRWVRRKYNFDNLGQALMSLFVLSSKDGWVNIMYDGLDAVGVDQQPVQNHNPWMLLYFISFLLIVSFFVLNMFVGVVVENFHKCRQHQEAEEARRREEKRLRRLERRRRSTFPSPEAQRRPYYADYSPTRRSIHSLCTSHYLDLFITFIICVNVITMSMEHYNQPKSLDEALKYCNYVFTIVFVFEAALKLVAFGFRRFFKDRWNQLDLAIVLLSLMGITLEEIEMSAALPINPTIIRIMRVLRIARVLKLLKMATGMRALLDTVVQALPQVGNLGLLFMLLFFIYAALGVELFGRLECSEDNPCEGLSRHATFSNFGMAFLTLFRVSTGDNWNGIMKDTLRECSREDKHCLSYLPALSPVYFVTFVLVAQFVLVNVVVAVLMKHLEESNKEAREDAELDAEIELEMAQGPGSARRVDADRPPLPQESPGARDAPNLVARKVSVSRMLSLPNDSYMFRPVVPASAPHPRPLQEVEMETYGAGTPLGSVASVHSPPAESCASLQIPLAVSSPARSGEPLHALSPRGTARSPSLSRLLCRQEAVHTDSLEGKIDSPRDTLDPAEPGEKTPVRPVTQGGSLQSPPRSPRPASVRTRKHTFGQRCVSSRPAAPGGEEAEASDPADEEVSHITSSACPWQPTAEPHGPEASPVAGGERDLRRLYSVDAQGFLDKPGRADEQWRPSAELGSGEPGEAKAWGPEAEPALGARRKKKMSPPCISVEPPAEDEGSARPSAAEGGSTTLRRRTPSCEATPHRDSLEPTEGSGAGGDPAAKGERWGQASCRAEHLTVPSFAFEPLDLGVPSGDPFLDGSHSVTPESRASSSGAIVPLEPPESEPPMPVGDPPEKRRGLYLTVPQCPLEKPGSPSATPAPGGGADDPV

| Compound | IC50 [1] | microsomal CLint at 1 µM [2] | IC50 [3] | solubility [4] | IC50 [5] | microsomal CLint at 1 µM [6] | Papp A→B (MDR1 [7]) | Papp B→A (MDR1 [8]) | efflux ratio (MDR1 [9]) | pKa [10] |
| --- | --- | --- | --- | --- | --- | --- | --- | --- | --- | --- |
| C[C@@H]1CN(CC2CCCCO2)c2ccccc2[C@H](C)N1C(=O)Nc1cccnc1 (mixture of isomers) | 875 nM | 720 µL/min/mg | 243 nM | 248 µg/mL | 2670 nM |  |  |  |  |  |
| C[C@@H]1CN(Cc2ccccc2)c2ccccc2[C@H](C)N1C(=O)Nc1cccnc1 (racemic) | 42 nM | > 1250 µL/min/mg | 14 nM | 21 to 39 µg/mL (≈ 54.3 to 101 µM) | 61 nM |  |  |  |  |  |
| C[C@@H]1CN(Cc2ccccc2)c2c(F)cccc2[C@H](C)N1C(=O)Nc1cccnc1 (racemic) | 178 nM | 720 µL/min/mg | 17 nM |  | 205 nM |  |  |  |  |  |
| C[C@@H]1CN(Cc2ccccc2)c2cccc(F)c2[C@H](C)N1C(=O)CCc1cccnc1 (racemic) | 47 nM | 562 µL/min/mg | 17 nM |  | 52 nM |  |  |  |  |  |
| C[C@@H]1CN(Cc2ccccc2)c2ccc(F)cc2[C@H](C)N1C(=O)Nc1cccnc1 (racemic) | 68 nM | > 1250 µL/min/mg | 8 nM |  | 112 nM |  |  |  |  |  |
| C[C@@H]1CN(Cc2ccccc2)c2nc(C(F)(F)F)ccc2[C@H](C)N1C(=O)NCc1ccccc1 (racemic) | 57 nM | 531 µL/min/mg | 281 nM |  | 104 nM |  |  |  |  |  |
| C[C@@H]1CN(Cc2ccccc2)c2cnccc2[C@H](C)N1C(=O)Nc1cccnc1 (racemic) | 360 nM | 93 µL/min/mg | 306 nM |  | 860 nM | 562 µL/min/mg |  |  |  |  |
| [2H]C([2H])(c1ccccc1)N1C[C@@H](C)N(C(=O)Nc2cccnc2)[C@@H](C)c2ccncc21 (racemic) | 441 nM | 59 µL/min/mg | 148 nM |  | 815 nM | 855 µL/min/mg |  |  |  |  |
| CC(C)CCN1C[C@@H](C)N(C(=O)CCc2cccnc2)[C@@H](C)c2c(F)cccc21 (racemic) | 45 nM | 357 µL/min/mg | 52 nM |  | 66 nM |  |  |  |  |  |
| COc1ccc2c(c1)[C@H](C)N(C(=O)Nc1cccnc1)[C@H](C)CN2Cc1ccccc1 (racemic) | 390 nM | 521 µL/min/mg | 100 nM |  | 530 nM |  |  |  |  |  |
| C[C@@H]1CN(Cc2ccccc2)c2ncc(F)cc2[C@H](C)N1C(=O)NCc1ccccc1 (racemic) | 65 nM | 837 µL/min/mg | 15 nM |  | 95 nM |  |  |  |  |  |
| C[C@@H]1CN(Cc2cnc(C(F)(F)F)s2)c2cccc(F)c2[C@H](C)N1C(=O)CCc1cccnc1 (racemic) | 115 nM | 193 µL/min/mg | 20 nM |  | 93 nM |  |  |  |  |  |
| C[C@@H]1CN(Cc2ccccc2)c2cncc(F)c2[C@H](C)N1C(=O)NCc1ccccc1 (racemic) | 140 nM | 185 µL/min/mg | 9 nM |  | 72 nM |  | 26.3 ×10⁻⁶ cm/s | 61 ×10⁻⁶ cm/s | 2.3 | 4.2 |
| C[C@@H]1CN(Cc2ccccc2)c2ncc(Cl)cc2[C@H](C)N1C(=O)NCc1ccccc1 (racemic) | 78 nM | 409 µL/min/mg | 46 nM |  | 68 nM |  |  |  |  |  |
| C[C@@H]1CN(Cc2ccccc2)c2cc(C#N)ccc2[C@H](C)N1C(=O)Nc1cccnc1 (racemic) | 582 nM | 418 µL/min/mg | 308 nM |  | 860 nM |  |  |  |  |  |
| COc1ccc2c(c1)N(Cc1ccccc1)C[C@@H](C)N(C(=O)Nc1cccnc1)[C@H]2C (racemic) | 627 nM | 649 µL/min/mg | 610 nM |  | 1600 nM |  |  |  |  |  |
| C[C@@H]1CNc2ccccc2[C@H](C)N1C(=O)NCc1ccccc1 (racemic) | > 10000 nM | 59 µL/min/mg | > 8600 nM |  | > 10700 nM |  |  |  |  |  |
| C[C@@H]1CN(Cc2ccccc2)c2cnccc2[C@H](C)N1C(=O)CCc1ccc(F)cc1 (racemic) | 196 nM | 907 µL/min/mg | 25 nM |  | 225 nM | > 1250 µL/min/mg |  |  |  |  |
| COc1ccc(CNC(=O)N2[C@H](C)CN(Cc3ccccc3)c3cnccc3[C@@H]2C)cc1 (racemic) | 79 nM | 189 µL/min/mg | 12 nM |  | 48 nM | 1140 µL/min/mg |  |  |  |  |
| C[C@@H]1CN(c2ccccc2)c2ccccc2[C@H](C)N1C(=O)NCc1ccccc1 (racemic) | 256 nM | > 1250 µL/min/mg | 225 nM |  | 209 nM |  |  |  |  |  |
| C[C@@H]1CN(Cc2ccccc2F)c2cnccc2[C@H](C)N1C(=O)NCc1ccccc1 (racemic) | 47 nM | 179 µL/min/mg | 31 nM |  | 95 nM | > 1250 µL/min/mg |  |  |  |  |
| C[C@@H]1CN(Cc2ccccc2)c2cc(OCC(F)(F)F)ccc2[C@H](C)N1C(=O)Nc1cccnc1 (racemic) | 187 nM | > 1250 µL/min/mg | 3560 nM |  | 790 nM |  |  |  |  |  |
| C[C@@H]1CN(CCOC(C)(C)C)c2ccccc2[C@H](C)N1C(=O)Nc1cccnc1 (racemic) | 108 nM | 1230 µL/min/mg | 23 nM | 81 µg/mL (≈ 204 µM) | 91 nM |  |  |  |  |  |
| [2H]C([2H])(c1ccccc1)N1C[C@@H](C)N(C(=O)NCc2ccccc2)[C@@H](C)c2ccncc21 (racemic) | 260 nM | 186 µL/min/mg | 15 nM |  | 230 nM | > 1250 µL/min/mg |  |  |  |  |
| C[C@@H]1CN(Cc2ccccc2)c2cnc(Cl)cc2[C@H](C)N1C(=O)NCc1ccccc1 (racemic) | 220 nM | > 1250 µL/min/mg | 55 nM |  | 224 nM |  |  |  |  |  |

These reach a lower IC50 [1]. Values come first.

| IC50 [1] | microsomal CLint at 1 µM [2] | IC50 [3] | solubility [4] | IC50 [5] | microsomal CLint at 1 µM [6] | Papp A→B (MDR1 [7]) | Papp B→A (MDR1 [8]) | efflux ratio (MDR1 [9]) | pKa [10] | Compound |
| --- | --- | --- | --- | --- | --- | --- | --- | --- | --- | --- |
| 18 nM | 1240 µL/min/mg | 33 nM |  | 28 nM |  |  |  |  |  | Cc1ccc2c(n1)N(Cc1ccccc1)C[C@@H](C)N(C(=O)NCc1ccccc1)[C@H]2C (racemic) |
| 26 nM | 539 µL/min/mg | 12 nM | 148 µg/mL (≈ 405 µM) | 61 nM |  |  |  |  |  | C[C@@H]1CN(Cc2ccccc2)c2ccccc2[C@H](C)N1C(=O)NC1COC1 (racemic) |
| 40 nM | 332 µL/min/mg | 13 nM |  | 30 nM |  |  |  |  |  | C[C@@H]1CN(Cc2cnc(C(F)(F)F)s2)c2ccccc2[C@H](C)N1C(=O)CCc1cccnc1 (racemic) |
| 7 nM | > 1250 µL/min/mg | 4 nM |  | 6 nM |  |  |  |  |  | C[C@@H]1CN(Cc2ccccc2)c2nc(F)ccc2[C@H](C)N1C(=O)NCc1ccccc1 (racemic) |
| 16 nM | 1000 µL/min/mg | 22 nM |  | 36 nM |  |  |  |  |  | C[C@@H]1CN(Cc2ccccc2)c2nc(Cl)ccc2[C@H](C)N1C(=O)NCc1ccccc1 (racemic) |
| 29 nM | 412 µL/min/mg | 13 nM |  | 62 nM |  |  |  |  |  | CC(C)CCN1C[C@@H](C)N(C(=O)CCc2cccnc2)[C@@H](C)c2ccccc21 (racemic) |
| 27 nM | 1110 µL/min/mg | 4 nM |  | 25 nM |  |  |  |  |  | [2H]C([2H])(c1ccccc1)N1C[C@@H](C)N(C(=O)Nc2cccnc2)[C@@H](C)c2ccccc21 (racemic) |
| 37 nM | 247 µL/min/mg | 10 nM |  | 44 nM | 1180 µL/min/mg |  |  |  |  | C[C@@H]1CN(Cc2ccc(C(F)(F)F)o2)c2cnccc2[C@H](C)N1C(=O)NCc1ccccc1 (racemic) |
| 40 nM | 375 µL/min/mg | 13 nM |  | 59 nM |  |  |  |  |  | C[C@@H]1CN(Cc2ccccc2)c2cccc(F)c2[C@H](C)N1C(=O)NC1COC1 (racemic) |
| 6 nM | > 1250 µL/min/mg | 4 nM |  | 12 nM |  |  |  |  |  | C[C@@H]1CN(Cc2ccccc2)c2cc(F)ccc2[C@H](C)N1C(=O)Nc1cccnc1 (racemic) |
| 13 nM | 119 µL/min/mg | 11 nM |  | 24 nM | 447 µL/min/mg |  |  |  |  | COc1ccc(CNC(=O)N2[C@H](C)CN(Cc3ccc(C(F)(F)F)o3)c3cnccc3[C@@H]2C)cc1 (racemic) |
| 38 nM | 212 µL/min/mg | 13 nM |  | 72 nM |  |  |  |  |  | C[C@@H]1CN(Cc2cccc(F)c2F)c2cnccc2[C@H](C)N1C(=O)NCc1ccccc1 (racemic) |
| 15 nM | 1060 µL/min/mg | 8 nM |  | 31 nM |  |  |  |  |  | C[C@@H]1CN(Cc2ccccc2)c2ncccc2[C@H](C)N1C(=O)NCc1ccccc1 (racemic) |
| 12 nM | 873 µL/min/mg | 8 nM |  | 22 nM |  |  |  |  |  | C[C@@H]1CN(Cc2ccccc2)c2cc(F)cc(F)c2[C@H](C)N1C(=O)Nc1cccnc1 (racemic) |
| 34 nM | > 1250 µL/min/mg | 6 nM | 21 to 39 µg/mL (≈ 53.6 to 99.6 µM) | 55 nM |  |  |  |  |  | C[C@@H]1CN(Cc2ccccc2)c2ccccc2[C@H](C)N1C(=O)Cc1cncs1 (racemic) |
| 26 nM | > 1250 µL/min/mg | 9 nM | 21 to 39 µg/mL (≈ 55.3 to 103 µM) | 58 nM |  |  |  |  |  | C[C@@H]1CN(Cc2ccccc2)c2ccccc2[C@H](C)N1C(=O)N1CCOCC1 (racemic) |
| 20 nM | 628 µL/min/mg | 10 nM |  | 52 nM |  |  |  |  |  | C[C@@H]1CN(Cc2ccccc2)c2cccc(F)c2[C@H](C)N1C(=O)Nc1cccnc1 (racemic) |
